Data on 3 molecules can be found in patent US20170066741A1, “2-Amino-3,5,5-Trifluoro-3,4,5,6-Tetrahydropyridines as BACE1 Inhibitors for Treatment of Alzheimer's Disease” (H. Lundbeck A/S, priority 2014, published 2017).

This assay deals with T1, BACE1 enzyme (Homo sapiens, UniProt P56817).
T1 construct: purchased Life Technologies P2985
T1 sequence (P56817 46-501): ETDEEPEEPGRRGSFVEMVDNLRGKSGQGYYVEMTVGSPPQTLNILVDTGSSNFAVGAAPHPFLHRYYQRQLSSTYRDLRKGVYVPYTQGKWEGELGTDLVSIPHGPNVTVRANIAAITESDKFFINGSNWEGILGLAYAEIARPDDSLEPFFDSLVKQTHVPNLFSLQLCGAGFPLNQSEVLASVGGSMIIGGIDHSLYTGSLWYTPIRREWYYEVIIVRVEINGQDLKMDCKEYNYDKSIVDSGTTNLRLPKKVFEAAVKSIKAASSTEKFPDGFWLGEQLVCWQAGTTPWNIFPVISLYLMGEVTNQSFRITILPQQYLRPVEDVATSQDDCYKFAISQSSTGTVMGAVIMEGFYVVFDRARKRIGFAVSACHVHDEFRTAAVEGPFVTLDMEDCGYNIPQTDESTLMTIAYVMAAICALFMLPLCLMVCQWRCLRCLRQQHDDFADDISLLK
In words: BACE1 efficacy assay (FRET-based, commercial BACE1 kit). It is filed as biochemical. The conditions noted are these: test compound 10 μM. How it is done: The efficacy assay was performed as a FRET-based assay using a commercially available BACE1 kit (Life Technologies, P2985). 2 μl test compound at 10 μM (final concentration) and 15 μl BACE1 enzyme from the kit (final concentration 3 nM) were preincubated for 15 minutes at room temperature before addition of […] of substrate from the kit (250 nM final concentration) and incubated for additional 90 minutes at room temperature. The assay plate was subsequently read in a Pherastar (Ex540/Em590). […] The efficacy of the test compounds was evaluated at 10 μM (final concentration) and defined as the percent inhibition of the enzyme activity using the equation % inhibition=100%−normalized enzyme activity in percent.
For orientation: inhibition means the change of the read-out against control, counted positive when it falls. On to `COc1ccc(C(=O)Nc2ccc(F)c([C@@]3(C)N=C(N)[C@@](C)(F)CC3(F)F)c2)nc1` [Compound 17, N-(3-((2R,5S)-6-amino-3,3,5-trifluoro-2,5-dimethyl-2,3,4,5-tetrahydropyridin-2-yl)-4-fluorophenyl)-5-methoxypicolinamide], for which the inhibition at 10 µM came out at 101%.
The value for `Cc1cc(C#N)cnc1C(=O)Nc1ccc(F)c([C@@]2(C)N=C(N)[C@@](C)(F)CC2(F)F)c1` [Compound 18, N-(3-((2R,5S)-6-amino-3,3,5-trifluoro-2,5-dimethyl-2,3,4,5-tetrahydropyridin-2-yl)-4-fluorophenyl)-5-cyano-3-methylpicolinamide] was 102%.
The value for `C[C@@]1(F)CC(F)(F)[C@@](C)(c2cc(NC(=O)c3ccn(C(F)F)n3)ccc2F)N=C1N` [Compound 23, N-(3-((2R,5R)-6-amino-3,3,5-trifluoro-2,5-dimethyl-2,3,4,5-tetrahydropyridin-2-yl)-4-fluorophenyl)-1-(difluoromethyl)-1H-pyrazole-3-carboxamide] was 102%.
